Assay results published in ChEMBL document CHEMBL1201862, “PubChem BioAssay data set” (2004).
Calls of active or inactive are those of the source.

Key:
[1] = target: T1, Protein skinhead-1 (Caenorhabditis elegans, UniProt P34707); format: functional
T1 sequence (P34707 whole entry): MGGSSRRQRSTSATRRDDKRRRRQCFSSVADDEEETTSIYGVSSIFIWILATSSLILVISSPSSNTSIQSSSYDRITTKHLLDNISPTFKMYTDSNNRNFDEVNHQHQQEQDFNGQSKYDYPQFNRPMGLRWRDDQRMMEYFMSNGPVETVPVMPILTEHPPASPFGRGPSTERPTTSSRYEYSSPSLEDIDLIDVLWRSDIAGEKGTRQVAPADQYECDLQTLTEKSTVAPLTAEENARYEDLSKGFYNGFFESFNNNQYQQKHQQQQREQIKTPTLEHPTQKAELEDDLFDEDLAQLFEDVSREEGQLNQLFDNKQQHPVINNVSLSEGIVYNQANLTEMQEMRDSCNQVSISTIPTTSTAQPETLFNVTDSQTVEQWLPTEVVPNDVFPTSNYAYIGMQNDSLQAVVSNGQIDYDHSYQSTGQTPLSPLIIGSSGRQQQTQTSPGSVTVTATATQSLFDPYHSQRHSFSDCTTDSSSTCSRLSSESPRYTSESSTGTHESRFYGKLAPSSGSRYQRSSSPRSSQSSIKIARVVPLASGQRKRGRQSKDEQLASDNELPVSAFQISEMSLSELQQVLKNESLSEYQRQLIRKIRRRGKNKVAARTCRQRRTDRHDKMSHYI

[2] = Shn3 3'UTR reporter inhibitors, dose response, cell-based, Clone20 osteoblasts, firefly luciferase, cherry-picked (AID 624132); format: functional;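 note: firefly luciferase luminescence from reporter carrying the Shn3 3'UTR in osteoblasts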
[3] = inhibitors of firefly luciferase expression or activity, dose response, H4 neuroglioma cells, luminescence (AID 1990); format: functional, cell-based
[4] = inhibitors of SNCA 5'UTR-driven reporter translation, confirmation, H4 neuroglioma cells, luminescence (AID 1988); format: functional, cell-based
[5] = target: Cytochrome P450 3A4 (Homo sapiens, UniProt P08684);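 note: CYP3A4 tested as one member of a cytochrome P450 panel screen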
[6] = Luminescence Cell-Based Dose Retest to Confirm Inhibitors of Cancer Stem Cells. [Related pubchem assays (depositor defined):AID2717, AID2721]; format: functional; settings: Homo sapiens
[7] = target: T2, Heat shock factor protein 1 (Mus musculus, UniProt P38532); experiment: HSF1 potentiators in luciferase reporter cells, confirmation, cell-based, NIH3T3, luminescence, dose retest (AID 435004); format: functional;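 note: stress induced by proteasome inhibitor MG132 added 30 min after compound; luciferase reporter driven by HSF1 response element in NIH3T3 cells; actives raise luminescence as potentiators of the MG132 stress response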
T2 sequence (P38532 whole entry): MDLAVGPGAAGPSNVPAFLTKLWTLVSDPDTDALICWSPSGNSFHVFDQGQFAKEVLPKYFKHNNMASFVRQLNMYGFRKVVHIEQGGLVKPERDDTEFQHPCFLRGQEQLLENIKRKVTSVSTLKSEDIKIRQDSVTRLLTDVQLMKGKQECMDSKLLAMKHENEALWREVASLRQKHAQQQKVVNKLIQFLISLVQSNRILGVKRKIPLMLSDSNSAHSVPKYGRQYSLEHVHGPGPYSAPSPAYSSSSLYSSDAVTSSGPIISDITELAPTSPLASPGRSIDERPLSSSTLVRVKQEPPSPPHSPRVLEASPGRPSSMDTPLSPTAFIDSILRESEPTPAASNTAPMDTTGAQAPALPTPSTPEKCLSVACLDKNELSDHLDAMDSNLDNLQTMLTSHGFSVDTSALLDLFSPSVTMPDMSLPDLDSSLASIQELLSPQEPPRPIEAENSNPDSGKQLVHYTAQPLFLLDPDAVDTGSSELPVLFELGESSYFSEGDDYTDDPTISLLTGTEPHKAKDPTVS

[8] = HEp-2 cell cytotoxicity, dose response, cytotoxicity control for RSV inhibitor project, HTS (AID 2410); format: functional; settings: human respiratory syncytial virus
[9] = target: T3, Corticotropin-releasing factor receptor 2/Corticotropin-releasing factor-binding protein (Homo sapiens, UniProt P24387+Q13324); experiment: Dose Response confirmation of uHTS hits for small molecule antagonists of the CRF-binding protein and CRF-R2 receptor complex.; format: functional; settings: read-out: IC50_Mean
T3 sequence (Q13324 whole entry): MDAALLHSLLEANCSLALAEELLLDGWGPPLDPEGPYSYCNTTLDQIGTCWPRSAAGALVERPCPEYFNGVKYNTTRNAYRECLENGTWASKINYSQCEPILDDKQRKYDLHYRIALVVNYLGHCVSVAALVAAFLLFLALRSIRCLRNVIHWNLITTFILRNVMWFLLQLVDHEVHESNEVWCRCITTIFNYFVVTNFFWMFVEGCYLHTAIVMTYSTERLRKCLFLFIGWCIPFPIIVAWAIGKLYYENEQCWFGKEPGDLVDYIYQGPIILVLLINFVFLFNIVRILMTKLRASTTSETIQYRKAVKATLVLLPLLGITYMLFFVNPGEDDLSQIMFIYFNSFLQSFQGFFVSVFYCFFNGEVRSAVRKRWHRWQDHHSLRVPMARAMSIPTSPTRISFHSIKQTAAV
T3 sequence (P24387 whole entry): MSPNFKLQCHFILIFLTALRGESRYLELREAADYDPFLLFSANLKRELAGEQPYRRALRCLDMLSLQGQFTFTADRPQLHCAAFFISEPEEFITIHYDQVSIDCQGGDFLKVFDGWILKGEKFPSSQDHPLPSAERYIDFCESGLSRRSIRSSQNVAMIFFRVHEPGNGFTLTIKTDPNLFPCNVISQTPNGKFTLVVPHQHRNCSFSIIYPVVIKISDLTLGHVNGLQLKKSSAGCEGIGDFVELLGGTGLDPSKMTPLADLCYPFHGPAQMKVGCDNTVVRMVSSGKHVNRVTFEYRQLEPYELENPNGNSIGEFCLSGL

[10] = target: T3, Corticotropin-releasing factor receptor 2/Corticotropin-releasing factor-binding protein; experiment: activators of CRF receptor 2 with binding protein – uHTS hits, confirmation (AID 602473); format: functional; settings: read-out: EC50_Mean
[11] = Luminescence Cell-Based Dose Response HTS to Identify Inhibitors of 5'UTR Stem-Loop Driven Prion Protein mRNA Translation in H4 Neuroglioblastoma Cells. [Related pubchem assays: 1827 (Project Summary), 1813 (Primary HTS)]; format: functional
[12] = target: T2, Heat shock factor protein 1; experiment: inhibition of MG132-induced HSE-luciferase signal, confirmation, cell-based, NIH3T3, luminescence, dose retest (AID 2382); format: functional;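 note: NIH3T3 fibroblasts with HSF1-driven luciferase reporter stressed by proteasome inhibitor MG132; luminescence from HSF1-driven luciferase expression after 8 hours of MG132 stress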

Cytochrome P450 3A4, sequence (P08684 whole entry): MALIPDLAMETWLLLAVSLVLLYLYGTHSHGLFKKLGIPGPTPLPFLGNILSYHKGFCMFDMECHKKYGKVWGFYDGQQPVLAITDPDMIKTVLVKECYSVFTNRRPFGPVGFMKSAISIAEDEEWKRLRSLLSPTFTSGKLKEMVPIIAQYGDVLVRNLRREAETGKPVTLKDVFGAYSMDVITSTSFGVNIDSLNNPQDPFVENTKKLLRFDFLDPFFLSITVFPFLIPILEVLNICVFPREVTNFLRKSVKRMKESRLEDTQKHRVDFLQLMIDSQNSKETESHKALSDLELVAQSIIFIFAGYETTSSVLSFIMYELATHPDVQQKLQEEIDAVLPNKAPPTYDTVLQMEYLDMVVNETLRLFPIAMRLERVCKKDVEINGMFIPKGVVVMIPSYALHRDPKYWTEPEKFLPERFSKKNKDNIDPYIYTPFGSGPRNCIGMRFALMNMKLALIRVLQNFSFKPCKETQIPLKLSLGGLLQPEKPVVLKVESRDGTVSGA

Q: With CCCOC(=O)c1cc(O)nc2ccccc12 as the compound, how does the IC50 [1] read?
A: > 100 µM (inactive)

Q: Which AC50 [2] does the source give for CCN1CCN(Cc2ccc(NC(=O)c3cc(NC(=O)c4cc5cccc(OC)c5o4)cc(OC)c3)cc2C(F)(F)F)CC1 here?
A: 10.2 µM (active)

Q: Which EC50 [3] does the source give for COc1ccc(NC(=O)c2cccc(N3C(=O)c4ccc(C(=O)Nc5ccc(OC)c(O)c5)cc4C3=O)c2)cc1O here?
A: 15 µM (active)

Q: And the EC50 [4]?
A: 13.4 µM (active)

Q: Which IC50 [1] does the source give for CCOC(=O)CN1CC23C=CC(O2)C(C(=O)NCc2cccs2)C3C1=O (centres undefined) here?
A: > 100 µM (inactive)

Q: With O=C(Nc1ccc(-c2noc(CCc3ccccc3)n2)cc1)c1ccco1 as the compound, how does the IC50 [1] read?
A: > 100 µM (inactive)

Q: For Fc1ccccc1/C=C/c1ccc2ccccc2n1, which IC50 [1] is on record?
A: 19.2 µM (active)

Q: Which IC50 [1] does the source give for c1ccc(CSc2ncnc3ccccc23)cc1 here?
A: 36.1 µM (active)

Q: Which IC50 [1] does the source give for COC(=O)c1c(NC(=O)c2ccco2)sc2c1CCC2 here?
A: > 100 µM (inactive)

Q: And the AC50 [5]?
A: 39.8 µM (inconclusive)

Q: And the AC50 [6]?
A: 68.2 µM (active)

Q: Which EC50 [7] does the source give for CCOC(=O)CSc1nc2c(sc3ccc([N+](=O)[O-])cc32)c(=O)n1Cc1ccco1 here?
A: > 260 µM (inactive)

Q: For O=[N+]([O-])c1cccc2ccc(/C=C/c3ccc(Cl)cc3)nc12, which IC50 [1] is on record?
A: > 100 µM (inactive)

Q: What about the CC50 [8] of the same compound?
A: 20 µM (active)

Q: Which IC50 [1] does the source give for Cn1cc([C@@H]2C[C@H]3CN(Cc4cccc(Cl)c4)C(=O)[C@]34CCCN24)c2ccccc21 here?
A: > 100 µM (inactive)

Q: With COc1ccccc1/C=C/c1nc(S(=O)(=O)c2ccccc2)c(N(C)C)o1 as the compound, how does the IC50 [9] read?
A: < 0.368 µM (active)

Q: What about the EC50 [10] of the same compound?
A: > 53 µM (inactive)

Q: With Cc1cccc(-n2c(SCc3ccc(C#N)cc3)nnc2-c2c[nH]c3ccccc23)c1 as the compound, how does the EC50 [11] read?
A: > 120 µM (not active)

Q: And the EC50 [3]?
A: > 120 µM (not active)

Q: And the EC50 [4]?
A: 25.7 µM (active)

Q: Which results are given for CC1CCCCN1S(=O)(=O)c1ccc(C(=O)Nc2sccc2C(N)=O)cc1 (centres undefined)?
A: IC50 [1]: > 100 µM (inactive); EC50 [12]: > 195 µM (not active); CC50 [8]: 19.2 µM (active)

Q: Which IC50 [1] does the source give for CCCCOC(=O)Nc1ccc(N2CCCCC2)cc1 here?
A: 10.6 µM (active)
